Experimental findings from EP0821959A2 (priority 1996, dated 1998) are described below.

Where only a bound is given, the exact number is not on record here.

For experiment [1], the target named is muscarinic cholinergic receptors. The conditions noted are these: 3H-QNB binding assay.
Experiment [2] has the same target. The experiment can be described thus: 3H-oxotremorine-M binding study (oxotremorine-M versus N-methylscopolamine, Freedman et al.). Particulars: inhibition of binding of 3H-oxotremorine-M; read-out: inhibition costant (Ki).
The next experiment addresses m4 receptors (Homo sapiens, UniProt P08173). It is filed as cell-based. Particulars: CHO m4 cells treated with pertussis toxin.

Chain of m4 receptors (P08173 whole entry): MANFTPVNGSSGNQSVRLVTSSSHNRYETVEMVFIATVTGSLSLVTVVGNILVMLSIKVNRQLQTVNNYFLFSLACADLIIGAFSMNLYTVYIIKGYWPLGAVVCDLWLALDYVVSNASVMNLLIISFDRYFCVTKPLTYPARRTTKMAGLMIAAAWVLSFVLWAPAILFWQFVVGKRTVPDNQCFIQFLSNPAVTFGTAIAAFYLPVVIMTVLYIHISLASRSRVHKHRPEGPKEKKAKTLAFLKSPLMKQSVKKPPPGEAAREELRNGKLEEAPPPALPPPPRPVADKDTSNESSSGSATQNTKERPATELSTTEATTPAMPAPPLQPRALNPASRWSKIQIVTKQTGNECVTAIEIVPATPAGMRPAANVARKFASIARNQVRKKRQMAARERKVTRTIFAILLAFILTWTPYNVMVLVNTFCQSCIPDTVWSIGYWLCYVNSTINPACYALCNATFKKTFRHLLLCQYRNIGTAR

In general, IC50 refers to the midpoint of a concentration-inhibition curve. Usually Ki stands for a measure of affinity in units of concentration, obtained from inhibition or displacement. The compound `CCCCCCOc1nsnc1C1=CCCN(C)C1` [Xanomeline, 3-(4-hexyloxy-1,2,5-thiadiazol-3-yl)-1,2,5,6-tetrahydro-1-methylpyridine] registered an IC50 in experiment [1] below 1000 µM. The inhibitory constant (Ki) in experiment [2] was 0.002 µM. At m4 receptors, the “formation of cAMP” value is “efficaciously and potently stimulated the formation of cAMP”.
